From article PMC13194042, “GABAA receptor agonists modulate intracellular Ca^2+ levels in activated human CD4^+ T cells” (Frontiers in Immunology, 2026)
Where two headings read alike, the source gives them in different places.

Experiments:
CRAC channel current = target: T1, CRAC channel current (Homo sapiens, UniProt Q96D31); assay: Whole-cell patch-clamp recording of CRAC-channel-mediated current; assay type: cell-based
T1 construct: endogenous in cells
From the text: To study the effect of YM58483 and picrotoxin (PTX) on CRAC-channel-mediated currents, the electrophysiological patch-clamp recordings were done in the whole-cell configuration. The extracellular solution was composed of the following (in mM): 155 NaCl, 4.5 KCl, 2 CaCl2, 1 MgCl2, 5 HEPES, and 5.6 glucose (pH 7.4, adjusted with NaOH). The pipette solution consisted of the following (in mM): 140 Cs methanesulfonate, 10 NaCl, 3 MgCl2, 10 HEPES, and 10 EGTA (pH 7.3, with CsOH). We further examined the recovery of currents during repeated drug applications to evaluate the level of run-down and desensitization, if present. In these experiments, in order to keep the intracellular chloride concentration intact, gramicidin (2.6 μg/mL) was used to obtain the perforated configuration. The extracellular solution (in mM) contained the following: 157 NaCl, 4.5 KCl, 0.5 CaCl2, 1 MgCl2, 5 HEPES, and 5.6 glucose (pH 7.4, adjusted with NaOH), and the pipette solution consisted of the following (mM): 149 KCl, 2 CaCl2, 1 MgCl2, 1 NaCl, 10 HEPES, and 5.6 glucose (pH 7.3, adjusted with KOH). […] Recordings were performed with the help of an Axopatch 200B amplifier, filtered at 2 kHz, and digitized at 10 kHz with an analog-to-digital converter. For the recordings, the Clampex 10.5 (Molecular Devices, San Jose, CA, USA) program was used. […]

[1] = target: T2, GABAA receptors in activated human CD4+ T cells (Homo sapiens, UniProt P28476); conditions: ref [12], cited from earlier work
[2] = target: T2, GABAA receptors in activated human CD4+ T cells; assay: Calcium imaging: agonist-evoked intracellular Ca2+ response in activated CD4+ T cells; assay type: cell-based
From the text: Human blood samples and blood buffy coats were obtained from Uppsala University Hospital (Uppsala Akademiska sjukhuset), the protocol of which was approved by the Regional Research Ethics Committee in Uppsala (Dnr 2013/347). All individuals who donated blood were voluntarily recruited. Peripheral blood mononuclear cells (PBMCs) were isolated from blood samples using density-gradient centrifugation with Ficoll-Paque™ PLUS (Sigma Aldrich, Sweden). Subsequently, CD4^+ T lymphocytes were isolated from the PBMCs by negative selection, utilizing a human CD4^+ T lymphocyte isolation kit (Miltenyi Biotec, Germany) as per the manufacturer’s instructions. The freshly isolated CD4^+ T lymphocytes (1 million cells/mL) were suspended in human plasma-like medium (HPLM) (Gibco, Fisher Scientific, Sweden) containing 10% heat-inactivated dialyzed fetal bovine serum (Gibco, Fisher Scientific, Sweden), 100 μg/mL streptomycin, 100 U/mL penicillin (Gibco, Fisher Scientific, Sweden), and 5 μM β-mercaptoethanol (Gibco, Fisher Scientific, Sweden). The cells were activated in a 96-well plate (1 × 10^5–1.2 × 10^5 cells/well) with 3 μg/mL plate-bound anti-CD3 antibody (BD Biosciences, USA) for 72 h. Insulin (1 nM) was added at 48 h after the activation of the cells. The anti-CD3 concentration (5 μg/mL) used by Jacobs et al. ([14]) is similar to the one employed in this study. […] Akt-dependent signaling is activated by insulin at 48 h post-activation and is reminiscent of the anti-CD28-evoked signaling ([14]).
(§1) Calcium imaging was performed as previously described ([12]). In brief, cells were loaded with 3 μM Fluo-8 AM calcium indicator (AAT Bioquest, Pleasanton, CA, USA) for 10 min at 37 °C and then seeded onto coverslips coated with 5% (3-aminopropyl)triethoxysilane (Sigma Aldrich) for 20 min at 37 °C. Calcium imaging was performed using a Zeiss LSM700 confocal microscope with a ×20 objective, capturing images at 0.5-s intervals. The recording solution was prepared by mixing two types of RPMI 1640 media, one containing 11 mM glucose (Gibco, Fisher Scientific, Sweden) and the other is glucose-free (Gibco, Fisher Scientific, Sweden). They were mixed in a 1:1 ratio, giving a final glucose concentration of 5.5 mM. The drugs were diluted in the recording solution and perfused into the chamber at specific concentrations using a peristaltic pump. After each drug application, the cells were perfused with the recording solution only to remove the drug. When the cells were again in the recording solution only, then the next test drug concentration was perfused into the chamber. This was done so that the receptors/cells had always been in a drug-free solution before a drug application, thus avoiding potential cumulative drug effects such as run-down or desensitization. The area around the individual cells was marked, and absolute fluorescence intensity values (F) were extracted using ZENBlue software. The relative intensity (F/Fmedian) for each cell was calculated for every recorded image and plotted against time. The peak relative intensity during the drug application was considered the drug’s response. Data are presented for all cells as scatter plots and box and whisker plots.
Single-cell data presentation and agonist-Ca^2+-response data were fitted in GraphPad Prism 10 (GraphPad Software Inc., La Jolla, CA, USA). The data were fitted using nonlinear regression with a standard dose–response model:
(F/Fmedian)max=[agonist]/[agonist]+(EC50)agonist

[3] = test system: human resting CD4+ T cells; assay: Calcium imaging in resting CD4+ T cells; assay type: cell-based; conditions: GABA 500 nM; n = 47 cells
Method: as §1, with “This was done so that the receptors/cells had always been in a drug-free solution before a drug application, thus avoiding potential cumulative drug effects such as run-down or desensitization.” left out, “The peak relative intensity during the drug application was considered the drug’s response. Data are presented for all cells as scatter plots and box and whisker plots.” left out

KCa3.1 channels = target: T3, KCa3.1 channels (Homo sapiens, UniProt O15554); assay: Calcium imaging: block of GABA-activated Ca2+ signal by KCa3.1 blocker; assay type: cell-based; conditions: GABA 500 nM; TRAM-34 1 µM; average, n = 169 cells, N = 3 donors
T3 construct: endogenous in cells
From the text: Peripheral blood mononuclear cells (PBMCs) were isolated from blood samples using density-gradient centrifugation with Ficoll-Paque™ PLUS (Sigma Aldrich, Sweden). Subsequently, CD4^+ T lymphocytes were isolated from the PBMCs by negative selection, utilizing a human CD4^+ T lymphocyte isolation kit (Miltenyi Biotec, Germany) as per the manufacturer’s instructions. The freshly isolated CD4^+ T lymphocytes (1 million cells/mL) were suspended in human plasma-like medium (HPLM) (Gibco, Fisher Scientific, Sweden) containing 10% heat-inactivated dialyzed fetal bovine serum (Gibco, Fisher Scientific, Sweden), 100 μg/mL streptomycin, 100 U/mL penicillin (Gibco, Fisher Scientific, Sweden), and 5 μM β-mercaptoethanol (Gibco, Fisher Scientific, Sweden). The cells were activated in a 96-well plate (1 × 10^5–1.2 × 10^5 cells/well) with 3 μg/mL plate-bound anti-CD3 antibody (BD Biosciences, USA) for 72 h. […]
In brief, cells were loaded with 3 μM Fluo-8 AM calcium indicator (AAT Bioquest, Pleasanton, CA, USA) for 10 min at 37 °C and then seeded onto coverslips coated with 5% (3-aminopropyl)triethoxysilane (Sigma Aldrich) for 20 min at 37 °C. […] The area around the individual cells was marked, and absolute fluorescence intensity values (F) were extracted using ZENBlue software. The relative intensity (F/Fmedian) for each cell was calculated for every recorded image and plotted against time. […]

CRAC channels = target: T4, CRAC channels (Homo sapiens, UniProt Q96D31); assay: Calcium imaging: block of GABA-mediated Ca2+ influx by CRAC channel inhibitor; assay type: cell-based; conditions: YM-58483 10 μM, acute application; n = 116 cells, N = 3 donors
T4 construct: endogenous in cells
From the text: Human blood samples and blood buffy coats were obtained from Uppsala University Hospital (Uppsala Akademiska sjukhuset), the protocol of which was approved by the Regional Research Ethics Committee in Uppsala (Dnr 2013/347). All individuals who donated blood were voluntarily recruited. Peripheral blood mononuclear cells (PBMCs) were isolated from blood samples using density-gradient centrifugation with Ficoll-Paque™ PLUS (Sigma Aldrich, Sweden). Subsequently, CD4^+ T lymphocytes were isolated from the PBMCs by negative selection, utilizing a human CD4^+ T lymphocyte isolation kit (Miltenyi Biotec, Germany) as per the manufacturer’s instructions. The freshly isolated CD4^+ T lymphocytes (1 million cells/mL) were suspended in human plasma-like medium (HPLM) (Gibco, Fisher Scientific, Sweden) containing 10% heat-inactivated dialyzed fetal bovine serum (Gibco, Fisher Scientific, Sweden), 100 μg/mL streptomycin, 100 U/mL penicillin (Gibco, Fisher Scientific, Sweden), and 5 μM β-mercaptoethanol (Gibco, Fisher Scientific, Sweden). […]
Calcium imaging was performed as previously described ([12]). […] The area around the individual cells was marked, and absolute fluorescence intensity values (F) were extracted using ZENBlue software. The relative intensity (F/Fmedian) for each cell was calculated for every recorded image and plotted against time. […]

[4] = read-out: EC50, half-maximal activation concentration of the evoked Ca2+ signal; activated CD4+ T cells, 72 h post-activation, 1 nM insulin last 24 h, 5.5 mM glucose

T2 sequence (P28476 21-465): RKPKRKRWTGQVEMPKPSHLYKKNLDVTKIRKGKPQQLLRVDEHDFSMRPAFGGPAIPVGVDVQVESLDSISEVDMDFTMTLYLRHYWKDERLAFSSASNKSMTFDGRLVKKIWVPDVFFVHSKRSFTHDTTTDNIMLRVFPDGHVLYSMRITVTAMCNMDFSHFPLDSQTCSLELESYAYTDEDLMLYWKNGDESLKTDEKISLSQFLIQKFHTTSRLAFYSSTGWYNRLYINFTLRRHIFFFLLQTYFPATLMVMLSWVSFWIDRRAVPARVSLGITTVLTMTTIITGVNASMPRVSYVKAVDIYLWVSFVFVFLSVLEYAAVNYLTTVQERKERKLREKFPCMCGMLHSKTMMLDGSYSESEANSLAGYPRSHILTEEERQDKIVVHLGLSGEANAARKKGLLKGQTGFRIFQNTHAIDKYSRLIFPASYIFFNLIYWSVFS
T1 sequence (Q96D31 whole entry): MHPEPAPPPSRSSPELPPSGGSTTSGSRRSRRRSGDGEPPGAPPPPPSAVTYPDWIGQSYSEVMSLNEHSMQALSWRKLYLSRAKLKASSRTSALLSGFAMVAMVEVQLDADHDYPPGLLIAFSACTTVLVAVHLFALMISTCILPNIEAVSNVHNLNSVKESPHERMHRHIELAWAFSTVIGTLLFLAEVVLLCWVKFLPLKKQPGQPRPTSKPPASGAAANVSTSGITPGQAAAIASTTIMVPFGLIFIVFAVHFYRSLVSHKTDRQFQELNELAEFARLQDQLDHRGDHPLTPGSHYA
T4 sequence (Q96D31 whole entry): as above
T3 sequence (O15554 whole entry): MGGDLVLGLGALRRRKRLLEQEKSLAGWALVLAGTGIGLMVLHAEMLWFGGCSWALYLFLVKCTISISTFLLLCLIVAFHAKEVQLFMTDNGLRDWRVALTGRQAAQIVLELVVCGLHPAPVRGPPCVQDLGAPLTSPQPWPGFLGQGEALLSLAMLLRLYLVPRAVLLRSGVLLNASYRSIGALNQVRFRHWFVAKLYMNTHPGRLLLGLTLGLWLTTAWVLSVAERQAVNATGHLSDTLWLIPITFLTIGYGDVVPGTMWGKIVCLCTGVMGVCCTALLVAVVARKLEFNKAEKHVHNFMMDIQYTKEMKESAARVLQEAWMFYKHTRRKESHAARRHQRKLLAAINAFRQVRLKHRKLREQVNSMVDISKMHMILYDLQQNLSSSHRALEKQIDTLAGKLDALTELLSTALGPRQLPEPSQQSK

## Picrotoxin
CRAC channel current; whole-cell, current at -80 mV normalized to control, n = 3 cells, N = 2 donors
  effect on the Ca2+ (CRAC channel) current: did not reduce the Ca^2+ current
[1]
  effect on muscimol (500 nM)- or TACA (500 nM)-evoked Ca2+ signals: blocked

## NCc1cc(=O)[nH]o1 [muscimol]
[2]; at 1 μM muscimol
  relative maximum Ca2+ signal (F/Fmedian): approximately 1.17
[2]; [4]
  EC50: 0.162 nM

## NC/C=C/C(=O)O [TACA, trans-4-aminocrotonic acid]
[2]; TACA vs GABA
  EC50 for the Ca2+-evoked signal relative to GABA (fold higher): approximately 500 fold
[2]; in 500 nM TACA
  relative maximum Ca2+ signal (F/Fmedian): 1.10
[2]; [4]
  EC50: 2.2 nM

## O=C(O)C1=CCNCC1 [isoguvacine]
[2]; activated CD4+ T cells, 72 h post-activation, 1 nM insulin last 24 h, 5.5 mM glucose; read-out: EC50, half-maximal activation concentration of the evoked Ca2+ signal
  EC50: 54.4 nM
[2]; in 10 μM isoguvacine
  relative maximum Ca2+ signal (F/Fmedian): 1.13

## Oc1noc2c1CCNC2 [THIP, 4,5,6,7-tetrahydroisoxazolo(5,4-c)pyridin-3-ol]
[2]; in 100 nM THIP
  relative maximum Ca2+ signal (F/Fmedian): 1.20
[2]; [4]
  EC50: 0.005 nM

## NCCCC(=O)O [GABA, γ-Aminobutyric acid]
[3]
  Ca2+ response in resting CD4+ T cells: does not evoke a calcium response
[1]; read-out: EC50 of the GABA-evoked Ca2+ signal
  EC50: 0.005 nM

## Clc1ccccc1C(c1ccccc1)(c1ccccc1)n1cccn1 [TRAM-34]
KCa3.1 channels
  inhibition of GABA-induced increase in intracellular Ca2+ levels: ~100%

## Cc1nnsc1C(=O)Nc1ccc(-n2nc(C(F)(F)F)cc2C(F)(F)F)cc1 [YM58483]
CRAC channels
  effect on GABA (500 nM)-evoked increase in intracellular Ca2+ levels: inhibited
CRAC channel current; 10 μM YM58483, whole-cell, voltage ramps, current normalized to control
  reduction of the Ca2+ (CRAC channel) current: approximately 40%
